From the supplement of paper PMC10307832

Columns and labels:
Experiment in all cases: relative viability (nuclei count vs DMSO), 5 days (fraction); higher = more cells survive
NCI-H2085 = tested on: NCI-H2085
Method in brief: (§1)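 Five library-drug doses in √10 steps were combined with a fixed anchor-drug dose, or a single drug was given alone, by pin tool to lung cancer cell lines in 1536-well plates the day after seeding. Nuclei were stained and counted after 5 days. Relative viability is the nuclei count in treated wells over that in vehicle wells, taken as the median of duplicate plates.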

201T = tested on: 201T
Method in brief: as §1

LU99A = tested on: LU99A
Method in brief: as §1

BEN = tested on: BEN
Method in brief: as §1

HOP-62 = tested on: HOP-62
Method in brief: as §1

PC-3 [JPC-3] = tested on: PC-3 [JPC-3]
Method in brief: as §1

LCLC-97TM1 = tested on: LCLC-97TM1
Method in brief: as §1

NCI-H1666 = tested on: NCI-H1666
Method in brief: as §1

NCI-H1437 = tested on: NCI-H1437
Method in brief: as §1

EKVX = tested on: EKVX
Method in brief: as §1

NCI-H2087 = tested on: NCI-H2087
Method in brief: as §1

SW 1573 = tested on: SW 1573
Method in brief: as §1

NCI-H358 = tested on: NCI-H358
Method in brief: as §1

NCI-H647 = tested on: NCI-H647
Method in brief: as §1

H3255 = tested on: H3255
Method in brief: as §1

NCI-H2342 = tested on: NCI-H2342
Method in brief: as §1

LOU-NH91 = tested on: LOU-NH91
Method in brief: as §1

NCI-H1395 = tested on: NCI-H1395
Method in brief: as §1

COR-L 105 = tested on: COR-L 105
Method in brief: as §1

NCI-H1975 = tested on: NCI-H1975
Method in brief: as §1

EPLC-272H = tested on: EPLC-272H
Method in brief: as §1

HCC-827 = tested on: HCC-827
Method in brief: as §1

HCC-44 = tested on: HCC-44
Method in brief: as §1

O=C(O)c1ccc(-c2c[nH]c3ncc(-c4ccccc4)cc23)cc1C1CCCC1 + COc1cccc2cc(-c3nc([C@H]4CC[C@H](C(=O)O)CC4)n4ncnc(N)c34)[nH]c12 [OSI-027] (partner 0.5 µM)
relative viability (NCI-H2085; first compound 0.04 µM): 0.867
relative viability (NCI-H2085; first compound 0.1265 µM): 0.761
relative viability (NCI-H2085; first compound 0.4 µM): 0.73
relative viability (NCI-H2085; first compound 1.265 µM): 0.554
relative viability (201T; first compound 0.04 µM): 0.693
relative viability (201T; first compound 0.1265 µM): 0.682
relative viability (201T; first compound 1.265 µM): 0.716
relative viability (LU99A; first compound 0.04 µM): 0.314
relative viability (LU99A; first compound 0.1265 µM): 0.309
relative viability (LU99A; first compound 0.4 µM): 0.364
relative viability (LU99A; first compound 1.265 µM): 0.3
relative viability (BEN; first compound 0.04 µM): 0.329
relative viability (BEN; first compound 0.1265 µM): 0.269
relative viability (BEN; first compound 0.4 µM): 0.307
relative viability (BEN; first compound 1.265 µM): 0.284
relative viability (HOP-62; first compound 0.04 µM): 0.899
relative viability (HOP-62; first compound 0.1265 µM): 0.859
relative viability (HOP-62; first compound 0.4 µM): 0.707
relative viability (HOP-62; first compound 1.265 µM): 0.805
relative viability (PC-3 [JPC-3]; first compound 0.04 µM): 0.784
relative viability (PC-3 [JPC-3]; first compound 0.1265 µM): 0.792
relative viability (PC-3 [JPC-3]; first compound 0.4 µM): 0.82
relative viability (PC-3 [JPC-3]; first compound 1.265 µM): 0.655
relative viability (LCLC-97TM1; first compound 0.04 µM): 0.474
relative viability (LCLC-97TM1; first compound 0.1265 µM): 0.659
relative viability (LCLC-97TM1; first compound 0.4 µM): 0.518
relative viability (LCLC-97TM1; first compound 1.265 µM): 0.526
relative viability (NCI-H1666; first compound 0.04 µM): 0.846
relative viability (NCI-H1666; first compound 0.1265 µM): 0.884
relative viability (NCI-H1666; first compound 0.4 µM): 0.906
relative viability (NCI-H1666; first compound 1.265 µM): 0.624
relative viability (NCI-H1437; first compound 0.04 µM): 0.898
relative viability (NCI-H1437; first compound 0.1265 µM): 0.926
relative viability (NCI-H1437; first compound 0.4 µM): 1.01
relative viability (NCI-H1437; first compound 1.265 µM): 0.565
relative viability (EKVX; first compound 0.04 µM): 0.736
relative viability (EKVX; first compound 0.1265 µM): 0.828
relative viability (EKVX; first compound 0.4 µM): 0.727
relative viability (EKVX; first compound 1.265 µM): 0.587
relative viability (NCI-H2087; first compound 0.04 µM): 0.563
relative viability (NCI-H2087; first compound 0.1265 µM): 0.673
relative viability (NCI-H2087; first compound 0.4 µM): 0.416
relative viability (NCI-H2087; first compound 1.265 µM): 0.47
relative viability (SW 1573; first compound 0.04 µM): 0.685
relative viability (SW 1573; first compound 0.1265 µM): 0.74
relative viability (SW 1573; first compound 0.4 µM): 0.55
relative viability (SW 1573; first compound 1.265 µM): 0.447
relative viability (NCI-H358; first compound 0.04 µM): 0.807
relative viability (NCI-H358; first compound 0.1265 µM): 0.933
relative viability (NCI-H358; first compound 0.4 µM): 0.727
relative viability (NCI-H358; first compound 1.265 µM): 0.359
relative viability (NCI-H647; first compound 0.04 µM): 0.701
relative viability (NCI-H647; first compound 0.1265 µM): 0.716
relative viability (NCI-H647; first compound 0.4 µM): 0.669
relative viability (NCI-H647; first compound 1.265 µM): 0.574
relative viability (H3255; first compound 0.04 µM): 0.671
relative viability (H3255; first compound 0.1265 µM): 0.662
relative viability (H3255; first compound 0.4 µM): 0.554
relative viability (H3255; first compound 1.265 µM): 0.506
relative viability (NCI-H2342; first compound 0.04 µM): 0.489
relative viability (NCI-H2342; first compound 0.1265 µM): 0.744
relative viability (NCI-H2342; first compound 0.4 µM): 0.748
relative viability (NCI-H2342; first compound 1.265 µM): 0.646
relative viability (LOU-NH91; first compound 0.04 µM): 0.743
relative viability (LOU-NH91; first compound 0.1265 µM): 0.824
relative viability (LOU-NH91; first compound 0.4 µM): 0.733
relative viability (LOU-NH91; first compound 1.265 µM): 0.73
relative viability (NCI-H1395; first compound 0.04 µM): 0.627
relative viability (NCI-H1395; first compound 0.1265 µM): 0.773
relative viability (NCI-H1395; first compound 0.4 µM): 0.516
relative viability (NCI-H1395; first compound 1.265 µM): 0.537
relative viability (COR-L 105; first compound 0.04 µM): 0.635
relative viability (COR-L 105; first compound 0.1265 µM): 0.673
relative viability (COR-L 105; first compound 0.4 µM): 0.757
relative viability (COR-L 105; first compound 1.265 µM): 0.838
relative viability (NCI-H1975; first compound 0.04 µM): 0.7
relative viability (NCI-H1975; first compound 0.1265 µM): 0.871
relative viability (NCI-H1975; first compound 0.4 µM): 0.648
relative viability (NCI-H1975; first compound 1.265 µM): 0.629
relative viability (EPLC-272H; first compound 0.04 µM): 0.266
relative viability (EPLC-272H; first compound 0.1265 µM): 0.283
relative viability (EPLC-272H; first compound 0.4 µM): 0.292
relative viability (EPLC-272H; first compound 1.265 µM): 0.281
relative viability (HCC-827; first compound 0.04 µM): 0.65
relative viability (HCC-827; first compound 0.1265 µM): 0.81
relative viability (HCC-827; first compound 0.4 µM): 0.725
relative viability (HCC-827; first compound 1.265 µM): 0.77
relative viability (HCC-44; first compound 0.04 µM): 0.512
relative viability (HCC-44; first compound 0.1265 µM): 0.505
relative viability (HCC-44; first compound 0.4 µM): 0.594
relative viability (HCC-44; first compound 1.265 µM): 0.484
